Data: PubChem BioAssay AID179 (DTP/NCI, 2004)
pEC50, pIC50: −log10 of the molar value. Active and inactive are the calls of the source.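 The calls were made as follows: active = compounds giving half or more protection of infected cells from virus-caused growth loss, again on retest; inactive = the rest.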 Where a SMILES comes first, the peptide text is derived from it. Bridges are numbered along the chain shown (N, C = ends).

System: CEM cells HIV-1 protection, formazan growth assay
Assay: NCI AIDS Antiviral Assay
Settings: for pIC50: measured here: growth of uninfected CEM cells
Outline: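 Human CEM cells, uninfected and HIV-1-infected, exposed to five drug concentrations; growth measured by soluble formazan assay and scored as percent protection from infection, with protecting compounds retested.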

| SMILES | pEC50 | pIC50 | outcome |
| --- | --- | --- | --- |
| Cc1cc2nc(-c3ccccn3)c(-c3ccccn3)nc2cc1C | < 3.70 | < 3.70 |  |
| N#CCCN(CCCN(C(=O)N(c1ccccc1)c1ccccc1)c1ccccc1)C(=O)Nc1ccccc1 | < 3.70 | 4.98 |  |
| Cc1occc1C(=S)Nc1ccc(Cl)c(/C=N/OC(C)C)c1 | 7.58 | 4.74 |  |
| O=c1ccn(C2OC(CO)CC2F)c(=O)[nH]1 (stereo not drawn) | < 3.17 | < 3.17 |  |
| CN(O)C(=O)/C=C/c1ccc(OCc2cccc(Cl)c2)cc1 | < 3.70 | 4.33 |  |
| Cc1cc(Cl)c(O)c(-c2cc(-c3ccc([N+](=O)[O-])cc3)c3c(N)[nH]c(=O)nc3n2)c1 | < 3.70 | 5.28 |  |
| N#CC(C#N)=c1ccc(=C(C#N)C#N)c2nsnc12 | < 4.42 | < 4.42 |  |
| CCOP(=O)(OCC)C(Nc1cccc([N+](=O)[O-])c1)c1ccccc1 (stereo not drawn) | < 3.70 | 3.76 |  |
| Cc1ccc(N(C(=O)CC(=O)N/N=C/c2ccccc2O)C(=O)c2ccccc2)cc1 |  |  | inactive |
| CN(C)CCCNc1c2ccccc2nc2cccc([N+](=O)[O-])c12 | < 6.70 | 9.39 |  |
| CC(C)N(C(=O)C12C3C4C5C3C1(C(=O)O)C5C42)C(C)C (stereo not drawn) | < 3.18 | < 3.18 |  |
| COc1ccc(/C=C/C(=N\NC(=O)c2ccccc2)c2sc(Nc3ccc([N+](=O)[O-])cc3)nc2C)cc1OC | < 4.88 | < 4.88 |  |
| Clc1ccc(N=C/C=C/Nc2ccc(Cl)cn2)nc1 | < 3.70 | 4.86 |  |
| N#CCCCCCOCCOCCOCCOCCOCCCCCC#N |  |  | inactive |
| CC1(C)CC(=O)C(/C=N/C(=S)Nc2ccc(S(N)(=O)=O)cc2)=C(O)C1 | < 3.70 | < 3.70 |  |
| COC(=O)c1cc(C(=C2CC2)c2cc(Br)c(OC)c(C(=O)OC)c2)cc(Br)c1OC | < 3.70 | 4.85 |  |
| CC1(C)CNC[C@]2(C)OCCCO[C@@]3(C)CNCC(C)(C)NC(=O)[C@](C)(CNCC(C)(C)NC3=O)OCCCO[C@](C)(CNCC(C)(C)NC2=O)C(=O)N1 | < 3.70 | < 3.70 |  |
| O=C(C(=O)n1ccc2ccccc21)n1ccc2ccccc21 | < 3.70 | 3.75 |  |
| C=C(C(=O)C(=O)Oc1ccc(Cl)cc1)C(=O)c1ccc(C)cc1 | < 4.10 | < 4.10 |  |
| CCc1ccc(/C=C/C(=O)C2CN(CC)CCC2(O)/C=C/c2ccc(CC)cc2)cc1 (stereo not drawn) | < 3.70 | 5.36 |  |
| Nc1ccc2c3c(cccc13)C(=O)N(CCCBr)C2=O | < 3.70 | 5.15 |  |

| SMILES | pEC50 | pIC50 | outcome |
| --- | --- | --- | --- |
| CCCCCCCCCCCCCCCCOCC(COC1OC(CO)C(O)C(O)C1O)OCCCCCCCCCCCCCCCC (stereo not drawn) | < 4.71 |  |  |
| Cc1ccc([P+](Cc2ccccc2)(c2ccc(C)cc2)c2ccc(C)cc2)cc1 | < 3.70 | 6.07 |  |
| Cc1ccc(/C=N\NC(=O)c2ccncc2)s1 | < 3.70 | 3.93 |  |
| CC1=NN(C(=O)c2ccncc2)C(=O)C1 | < 3.70 | < 3.70 |  |
| COC(=O)c1cc2ccccc2c(CS(=O)(=O)O)c1O | < 3.70 | 4.25 |  |
| O=[N+]([O-])c1ccccc1SSc1ccccc1[N+](=O)[O-] | < 4.91 | 5.13 | inactive |
| CC12CCC(=O)C=C1CCC1C2CCC2(C)C1CCC2(O)C1(O)CCC2C3CCC4=CC(=O)CCC4(C)C3CCC21C (stereo not drawn) | < 4.00 | 4.26 |  |
| Cc1oc2c(c1C)S(=O)(=O)C(C#N)=C(c1ccccc1)N2 | < 3.70 | < 3.70 |  |
| COC[C@@H](N=CN1CCc2ccccc2C1)c1ccccc1 | < 3.49 | < 3.49 |  |
| CC1=C[C@H]2C3=C(OC(C)(C)[C@H]2CC1)C(=O)c1c(cc(O)c(C)c1O)C3=O | < 3.74 | 4.46 |  |
| CCOC(=O)C1CSSCC(N)C(=O)N1 (stereo not drawn) (H-Cys-Cys-OEt; disulfide 1-2; configuration not given here) | < 3.70 | < 3.70 |  |
| CCCCCCCCCc1cc(O)c(O)cc1CCCCCCCCC | < 4.00 | 4.32 |  |
| CCCCCCn1c(SCC)c2ccccc2c1-c1nc(F)nc(F)n1 | < 5.56 | < 5.56 |  |
| Nc1c(-c2cccc3ccccc23)c2ccc([N+](=O)[O-])cc2c(=O)n1-c1nc2ccccc2s1 | < 4.30 | 6.17 |  |
| C[N+]1(CC(=O)O)C2CCC1CC(O)C2 (stereo not drawn) | < 3.70 | < 3.70 |  |
| CCOC(=O)Cc1ccc(Nc2nc3ccccc3nc2C(=O)OCC)cc1 | 4.04 | < 3.70 |  |
| Nc1nncc2[nH]cnc12 | < 3.70 | 5.00 |  |
| COc1ccc(NCc2cnc3nc(N)nc(N)c3c2C)cc1 | < 3.70 | 6.36 |  |
| O=C(CC(O)(C(F)(F)F)C(F)(F)F)c1cccs1 | < 3.70 | < 3.70 |  |
| Cc1cn2c(n1)sc1ccccc12 | < 3.70 | < 3.70 |  |
| COC(=O)C(Cc1nc2ccccc2[nH]c1=O)C(=O)C(=O)Nc1ccc([N+](=O)[O-])cc1[N+](=O)[O-] (stereo not drawn) | < 4.26 | 4.59 |  |

| SMILES | pEC50 | pIC50 | outcome |
| --- | --- | --- | --- |
| Cc1ccc(C(=O)Nc2ccc(S(=O)(=O)O)c3cc(S(=O)(=O)O)cc(S(=O)(=O)O)c23)cc1NC(=O)c1cccc(NC(=S)Nc2cccc(C(=O)Nc3cc(C(=O)Nc4ccc(S(=O)(=O)O)c5cc(S(=O)(=O)O)cc(S(=O)(=O)O)c45)ccc3C)c2)c1 | 4.00 | 3.27 |  |
| O=C1c2c(O)cccc2C(C2OC(CO)C(O)C(O)C2O)c2cc(CO)cc(O)c21 (stereo not drawn) | < 3.22 | 3.41 |  |
| CN(CCc1ccc(Br)cc1)CCN1CCCCC1 | < 3.91 | 4.24 |  |
| Cn1c(=O)cc2[nH]c3ccccc3n2c1=O | < 4.20 | < 4.20 |  |
| O=C(O)[C@H]1CSCN1C(=O)c1ccccc1SSc1ccccc1C(=O)N1CSC[C@H]1C(=O)O | < 3.70 | < 3.70 |  |
| CCN(CC)C(C(=O)Nc1c(C)cccc1C)N(CC)CC | < 3.70 | < 3.70 |  |
| CN(C)CCCNc1c(C#N)[n+]([O-])c2cc(Cl)ccc2[n+]1[O-] | < 5.70 | 6.00 |  |
| O=C([O-])c1ccc2c(c1)-c1nc-2nc2[n-]c(nc3nc(nc4[n-]c(n1)c1ccc(C(=O)[O-])cc41)-c1ccc(C(=O)[O-])cc1-3)c1ccc(C(=O)[O-])cc21.[Gd+3].[K+] | < 4.34 | < 4.34 |  |
| CCOC(=O)c1nc2c(Cl)c3ncccc3cc2[nH]c1=O | < 3.70 | 4.92 |  |
| CCOC(=O)c1ccc(NCc2ccc3oc(=O)c(-c4ccccc4)nc3c2)cc1 | < 3.87 | 4.41 |  |
| COC(=O)C(Cc1ccccc1)NP(=O)(O)OCC1OC(n2cc(F)c(=O)[nH]c2=O)CC1O (stereo not drawn) | < 3.70 | 4.23 |  |
| NC(Cc1ccc(N(CCCl)CCCl)cc1)C(=O)O (stereo not drawn) | < 3.70 | 4.92 |  |
| Cc1nonc1C(=O)NN | < 3.20 | < 3.20 |  |
| COC(=O)c1ccc(N=Cc2ccc(C=Nc3ccc(C(=O)OC)cc3)cc2)cc1 | < 4.89 | < 4.89 |  |
| O=C1CC2(CCC3=C(O2)c2ccccc2NC(=O)C3)C(=O)c2ccccc2N1 (stereo not drawn) | < 4.16 | < 4.16 |  |
| CN1c2ccccc2C2=C(c3ccccc3)CC[C@@H](C(=O)N3C4CC5CC[C@@]4(CS3(=O)=O)C5(C)C)[C@@H]21 (stereo partly drawn) | < 3.70 | 3.89 |  |
| CCn1cc(C(=O)O)c(=O)c2cc(Cl)c(-n3cccc3)cc21 |  |  | inactive |
| O=[N+]([O-])c1nccn1CCCNCCCn1ccnc1[N+](=O)[O-] | < 3.70 | < 3.70 |  |
| O=c1[nH]c(=O)n(C2OC(CO)C(O)C2O)cc1Oc1ccccc1 (stereo not drawn) | < 3.70 | < 3.70 |  |
| CC(=O)OCCNc1n[nH]c(=O)c2cnccc12 | < 3.00 | < 3.00 |  |
| COc1cc(OC)cc(-n2c(N)c(-c3nc4ccccc4s3)c3ccc([N+](=O)[O-])cc3c2=O)c1 | < 3.70 | 3.83 |  |

| SMILES | pEC50 | pIC50 | outcome |
| --- | --- | --- | --- |
| C(=Nc1ccc(SSc2ccc(N=Cc3ccccc3)cc2)cc1)c1ccccc1 | < 3.70 | 4.48 |  |
| C[n+]1c2ccccc2n2c3ccccc3c(NCc3ccco3)c(C#N)c21 | < 4.70 | 5.83 |  |
| CC1(C)OC2OC3C4COC(SSC56OCC(O5)C5OC7OC(C)(C)OC7C5O6)(O4)OC3C2O1 (stereo not drawn) | < 3.70 | 4.58 |  |
| CC1=Nc2c(ccc3c2C(=O)c2ccccc2C3=O)NC(c2cccc3c2CCC3)C1 (stereo not drawn) | < 5.03 | < 5.03 |  |
| CCCCCCCCCCCCCc1nn[nH]n1 | < 3.99 | < 4.00 |  |
| COC(=O)C(=O)C1(CCC(C)=O)c2ccccc2-c2ccccc21 |  |  | inactive |
| O=S(=O)(SC(Cl)(Cl)Cl)c1cccc(S(=O)(=O)c2cccc(S(=O)(=O)SC(Cl)(Cl)Cl)c2)c1 | < 3.70 | < 3.70 |  |
| Cc1ccc2c(c1)P(=O)(O)c1cc(C)ccc1O2 | < 3.70 | < 3.70 |  |
| CC1CN(c2ccccc2)NC1=O (stereo not drawn) | < 3.70 | < 3.70 |  |
| Cc1ccc(S(=O)(=O)N2CC(O)C=Cc3ccccc32)cc1 (stereo not drawn) | < 3.70 | 5.50 |  |
| NCCCN(CCCN)CCCNCc1c2ccccc2c(CNCCCN(CCCN)CCCN)c2ccccc12 | 5.32 | 4.78 |  |
| C[C@@H](c1ccccc1)C(CC#N)[C@H]1CCC[C@]1(O)C#Cc1ccc2c(c1)OCO2 (stereo partly drawn) | < 3.70 | 4.94 |  |
| CCC[CH2][Sn]1([CH2]CCC)[O]C(=O)c2cc(C)ccc2[O]1 | < 5.03 | 5.51 |  |
| CCOC(=O)CN1C(=O)S/C(=C2\C(=O)N(C)c3ccccc32)C1=O | < 3.70 | < 3.70 |  |
| O=Nc1c(S(=O)(=O)O)cc2cc(S(=O)(=O)O)ccc2c1O | < 3.70 | < 3.70 |  |
| Cc1nc2c(=O)n(-c3ccccc3)c3ccccc3c2o1 | < 3.70 | 3.84 |  |
| C#CCC(O)c1ccccc1C(O)CC#C (stereo not drawn) |  |  | inactive |
| Nc1ncnc2c1nnn2C1C=CC(COS(N)(=O)=O)C1 (stereo not drawn) | < 3.70 | 4.36 |  |
| Cc1ccnc(NC(=O)Nc2cc(Cl)ccc2Cl)c1 | < 3.70 | < 3.70 |  |
| COc1cc(OC)c2c(=O)c3ccccc3n3c(C(C)O)cc1c23 (stereo not drawn) | < 3.70 | 5.32 |  |
| CC(=O)C1(N=Nc2ccc(S(=O)(=O)Nc3ccccn3)cc2)CCOC1=O (stereo not drawn) | < 3.70 | < 3.70 |  |
